Measurements taken from patent US7179614B2, “Screening methods to identify compounds that modulate type I phosphodiesterase (PDE) activity” (Mount Sinai School of Medicine, priority 2000, dated 2007).

Experiments:
PDE 1 = settings: Yan et al., J. Biol. Chem. 1996; cited from earlier work
[1] = test system: PDE1A present in fractions 6 and 11; assay: PDE assay on anion exchange fractions 6 and 11 of taste tissue; type: biochemical, bovine
Experimental: (§1) Preparation of taste extract. 1–2 gm circumvallate taste papillae or fungiform papillae from fresh bovine tongues were dissected and homogenized in a buffer containing 20 mMTris-Cl pH 7.5, 1 mM EDTA, 1 mM DTT, 10% glycerol, 10 μg/ml leupeptin, 10 μg/ml aprotinin, 100 μM AEBSF and 10 μg/ml pepstatin. Homogenization was carried out using a Polytron homogenizer. The homogenate was first spun at 2500×g for 10 minutes at 4° C. and the resulting supernatant was spun at 100,000×g for 30 minutes at 4° C. The supernatant of the second spin was checked for PDE activity and fractionated by anion exchange chromatography.
(§2) Anion Exchange Chromatography. Supernatant prepared from taste papillae was loaded at 1 ml/min on a DEAE-10 anion exchange column which had been equilibrated with buffer A (20 mM Tris-HCl pH 7.5, 2 mM EDTA, 20 mM β-mercapto ethanol). The column was washed in buffer A for 15 minutes or until protein was no longer detected in the buffer. Bound protein activity was eluted at a flow rate of 2 ml/min with a linear gradient (0–100%) of buffer B (buffer A+1 M NaCl) over 45 minutes Fractions were collected at 4° C. and assayed for PDE Activity. Aliquots of each fraction were boiled in sample buffer for Western blot analysis.
(§3) PDE Assays and CaM Affinity on Beads. PDE assays followed established procedures (Sonnenburg et al., Methods 1998, 14:3–19). All assays were performed at 30° C. using either 1 μM cAMP or between 0.2 and 1 μM cGMP as substrate in the presence of 1 mM EGTA (basal), 1 mM CaCl2 plus 4 μg/ml CaM (Ca^2+/CaM) or 100 μM effector activation peptide (Gαt-rod) peptide.
Specificity of the calmodulin affinity beads was checked by doing an affinity chromatography purification in the presence of 2 mM EGTA instead of CaCl2. The beads were incubated with the appropriate fractions at 4° C. for 1 hour, then spun for 2 minutes and the supernatant and pellet kept separately. The beads were then washed in the same buffer and resuspended in the presence of protease inhibitors. PDE activity was checked on the beads and in the supernatant. CaCl2 was compensated in the PDE assays when the CaM affinity was done in presence of excess EGTA.

[2] = test system: PDEs in bovine taste tissue fractions; assay: PDE assay across anion exchange fractions of taste papillae extract; type: biochemical; settings: 100 μM peptide or 1 mM CaCl2 and 4 μg/ml CaM; for stimulation of cGMP hydrolytic activity: 1 μM cGMP; for stimulation of cAMP hydrolysis: 1 μM cAMP
Experimental: as §1, §2, §3

PDE1A1 = target: T1, PDE1A1 (Bos taurus, UniProt P14100); assay: PDE assay of recombinant PDE over-expressed in HEK-293 cells; type: biochemical; settings: HEK-293 cell homogenate; cGMP substrate; 100 μM peptide or 1 mM CaCl2 and 4 μg/ml CaM
T1 construct: made in house; host or cells: HEK 293 cells, transient transfection, sonicated lysate
T1 sequence (P14100 1-514 isoform P14100-2): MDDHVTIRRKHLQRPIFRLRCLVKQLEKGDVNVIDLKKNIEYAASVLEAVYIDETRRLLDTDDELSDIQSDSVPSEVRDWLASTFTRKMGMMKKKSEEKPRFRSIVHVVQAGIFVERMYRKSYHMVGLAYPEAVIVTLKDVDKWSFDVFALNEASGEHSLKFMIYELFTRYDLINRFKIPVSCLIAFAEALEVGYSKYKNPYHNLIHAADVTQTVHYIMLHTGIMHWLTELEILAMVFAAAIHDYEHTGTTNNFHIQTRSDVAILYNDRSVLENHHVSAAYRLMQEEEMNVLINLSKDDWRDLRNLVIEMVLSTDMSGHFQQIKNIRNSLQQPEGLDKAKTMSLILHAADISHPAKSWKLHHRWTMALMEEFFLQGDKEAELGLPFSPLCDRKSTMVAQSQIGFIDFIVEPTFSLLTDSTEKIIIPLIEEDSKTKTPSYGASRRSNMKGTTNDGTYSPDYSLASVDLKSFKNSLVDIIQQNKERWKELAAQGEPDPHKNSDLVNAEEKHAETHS
Experimental: as §3
(§4) Over-expression and Assay of Recombinant PDEs. HEK 293 cells were cultured in Eagle's MEM with 2 mM […], Earle's balanced salt solution, 1.5 g/L sodium bicarbonate, 0.1 mM non-essential amino acids, 1 mM sodium pyruvate, and 10% heat-inactivated fetal calf serum. HEK 293 cells were seeded at 0.5×10^6 per well in a 6 well dish. After 24 hours, cells were transfected with DNA constructs using Gene Porter (Gene Therapy Systems), a lipid-based transfection reagent. Cells were transfected with 6 μg DNA (PDE1A1, PDE1A2 or PDE1C3) and 30 μl transfection reagent in serum free media in a volume of 1 ml. After 5 hours, the cells were supplemented with 1 ml media containing twice serum. 24 hours later, the cells were harvested by rinsing twice with PBS, scraping the cells into 200 μl of buffer containing 20 mM Tris-Cl pH 7.5, protease inhibitors (Sigma P- 8340), 1 mM 4-(2-aminoethyl) benzenesulfonyl fluoride (AEBSF), 15 μM pepstatin A, 14 μM trans-epoxysuccinyl-L-leucylamido(4-guanidino) butane (E-64), 40 μM bestatin, 22 μM leupeptin, and 0.8 μM aprotinin. Cells were sonicated in 3 five second bursts at approximately 10 Watts, and the lysates were used as the source of enzyme in the PDE assay.

PDE1A2 = target: T2, PDE1A2 (Bos taurus, UniProt P14100); assay: as above; type: biochemical; settings: HEK-293 cell homogenate; cGMP substrate; 100 μM peptide or 1 mM CaCl2 and 4 μg/ml CaM
T2 construct: made in house; host or cells: HEK 293 cells, transient transfection, sonicated lysate
T2 sequence (P14100 whole entry): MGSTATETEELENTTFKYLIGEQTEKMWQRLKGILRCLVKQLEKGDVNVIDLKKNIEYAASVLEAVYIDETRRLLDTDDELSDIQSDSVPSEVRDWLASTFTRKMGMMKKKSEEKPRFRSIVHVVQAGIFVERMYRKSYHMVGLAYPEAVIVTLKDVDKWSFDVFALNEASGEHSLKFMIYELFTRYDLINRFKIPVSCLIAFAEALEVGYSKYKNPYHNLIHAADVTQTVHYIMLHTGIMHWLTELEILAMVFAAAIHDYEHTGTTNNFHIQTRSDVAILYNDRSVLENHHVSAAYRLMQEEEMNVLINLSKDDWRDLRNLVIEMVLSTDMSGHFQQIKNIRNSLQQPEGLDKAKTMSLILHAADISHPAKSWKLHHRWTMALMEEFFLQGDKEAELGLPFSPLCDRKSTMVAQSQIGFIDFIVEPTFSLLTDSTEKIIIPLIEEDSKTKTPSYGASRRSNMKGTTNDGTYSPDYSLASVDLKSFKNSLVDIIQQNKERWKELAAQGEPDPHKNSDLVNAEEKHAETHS
Experimental: as §3, §4

PDE1C3 = target: T3, PDE1C3 (Homo sapiens, UniProt Q14123); assay: as above; type: biochemical; settings: HEK-293 cell homogenate; cGMP substrate; 100 μM peptide or 1 mM CaCl2 and 4 μg/ml CaM
T3 construct: made in house; host or cells: HEK 293 cells, transient transfection, sonicated lysate
T3 sequence (Q14123 whole entry): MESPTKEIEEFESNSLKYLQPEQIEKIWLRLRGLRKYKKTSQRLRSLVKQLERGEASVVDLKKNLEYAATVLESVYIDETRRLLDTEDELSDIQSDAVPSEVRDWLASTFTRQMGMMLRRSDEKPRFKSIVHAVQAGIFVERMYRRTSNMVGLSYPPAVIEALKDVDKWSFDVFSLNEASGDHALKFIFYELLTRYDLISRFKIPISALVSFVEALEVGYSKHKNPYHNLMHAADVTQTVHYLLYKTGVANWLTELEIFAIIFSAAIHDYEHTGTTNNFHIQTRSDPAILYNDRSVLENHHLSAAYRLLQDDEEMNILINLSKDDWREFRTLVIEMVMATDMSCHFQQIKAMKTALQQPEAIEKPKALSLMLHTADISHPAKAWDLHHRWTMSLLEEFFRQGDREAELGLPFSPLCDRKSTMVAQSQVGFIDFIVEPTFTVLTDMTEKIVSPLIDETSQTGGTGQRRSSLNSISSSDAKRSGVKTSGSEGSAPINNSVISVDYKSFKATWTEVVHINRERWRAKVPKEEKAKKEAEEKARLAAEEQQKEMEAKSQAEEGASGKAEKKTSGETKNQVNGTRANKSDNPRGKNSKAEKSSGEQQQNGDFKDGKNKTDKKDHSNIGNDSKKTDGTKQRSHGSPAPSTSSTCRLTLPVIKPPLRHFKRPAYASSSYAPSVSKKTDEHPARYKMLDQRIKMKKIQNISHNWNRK
Experimental: as §3, §4

| stimulation of recombinant PDE activity (PDE1A1) | stimulation of recombinant PDE activity (PDE1A2) | stimulation of recombinant PDE activity (PDE1C3) | Compound | IC50 (PDE 1) [nM] | inhibition of peptide stimulated activity of PDE1A bound to calmodulin beads ([1]; PDE1A bound to calmodulin beads, Gαt-rod peptide stimulated) | inhibition of peptide stimulated PDE activity ([1]; fractions 6 and 11, 1 μM cGMP, 100 μM Gαt-rod peptide) | inhibition of calmodulin stimulated PDE activity ([1]; fractions 6 and 11, 1 μM cGMP, 1 mM CaCl2 and 4 μg/ml CaM) [%] | stimulation of cGMP hydrolytic activity ([2]; first peak, fractions 6–7) | stimulation of cAMP hydrolysis ([2]; first three peaks (fractions 6–7; 10–12; 13–15)) | stimulation of cAMP hydrolysis ([2]; fourth peak, fractions 19–23 (PDE4)) | stimulation of cGMP hydrolytic activity ([2]; fourth peak, fractions 21–23) | stimulation of cGMP hydrolytic activity ([2]; second peak, fractions 10–12) | stimulation of cGMP hydrolytic activity ([2]; third peak, fractions 13–15) | stimulation of PDE activity ([1]; fractions 6 and 11, 100 μM peptide, 1 μM cGMP) |
| --- | --- | --- | --- | --- | --- | --- | --- | --- | --- | --- | --- | --- | --- | --- |
| – | – | – | CN1C(=O)c2[nH]c(Cc3ccc(C(F)(F)F)cc3)nc2N2C1=N[C@@H]1CCC[C@@H]12 [SCH 51866] | 100 | also inhibited peptide stimulated activity of PDE1A bound to calmodulin beads | also inhibited peptide stimulated activity | 90 | – | – | – | – | – | – | – |
| stimulated | stimulated | stimulated | Gαt-rod peptide: peptide corresponding to the PDE effector-interaction-region of rod transducin (residues 293–314 of transducin Gα) (EDAGNYIKVQFLELNMRRDVKE) | – | – | – | – | activated | show stimulation | neither Ca^2+/CaM nor Gαt-rod peptide dependent | not stimulated above the basal level | activated | greatest activity when stimulated | stimulated |
